Measured values: publication PMC11050599, “Novel Tetracyclic Azaphenothiazines with the Quinoline Ring as New Anticancer and Antibacterial Derivatives of Chlorpromazine” (International Journal of Molecular Sciences, 2024)
Values after ≈ are worked out from the molar mass of the structure shown.

What was measured:
HCT116 (colon cancer) = assay: MTT assay, HCT116 cells; format: cell-based, human
Outline: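 Test compounds are added to plated cells (1 × 10^4 per well) for 72 h. Cell viability is calculated as the percentage of MTT reduction compared with cells given medium alone.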

S. aureus ATCC 29213 = assay: MIC broth microdilution; format: cell-based; details: Staphylococcus aureus, ATCC29213; 19 h, 35 °C; read-out: MIC S. aureus ATCC 29213
Outline: (§1)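 Two-fold serial broth microdilution in Mueller-Hinton II broth, final inoculum adjusted to […]. Compounds dissolved in DMSO, final solvent at most 1%.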

[1] = test system: S. epidermidis ATCC 35984; assay: MIC broth microdilution; format: cell-based; details: Staphylococcus epidermidis, ATCC35984; 19 h, 35 °C; read-out: MIC S. epidermidis ATCC 35984
Outline: as §1

S. aureus ATCC 6538 = assay: MIC broth microdilution; format: cell-based; details: Staphylococcus aureus, ATCC6538; 19 h, 35 °C; read-out: MIC S. aureus ATCC 6538
Outline: as §1

S. aureus ATCC 25923 = assay: MIC broth microdilution; format: cell-based; details: Staphylococcus aureus, ATCC25923; 19 h, 35 °C; read-out: MIC S. aureus ATCC 25923
Outline: as §1

[2] = test system: S. epidermidis ATCC 12228; assay: MIC broth microdilution; format: cell-based; details: Staphylococcus epidermidis, ATCC12228; 19 h, 35 °C; read-out: MIC S. epidermidis ATCC 12228
Outline: as §1

P. aeruginosa ATCC 15442 = assay: MIC broth microdilution; format: cell-based; details: Pseudomonas aeruginosa, ATCC15442; 19 h, 35 °C; read-out: MIC P. aeruginosa ATCC 15442
Outline: as §1

S. aureus NCTC 4163 = assay: MIC broth microdilution; format: cell-based; details: 19 h, 35 °C
Outline: as §1

E. coli ATCC 25922 = assay: MIC broth microdilution; format: cell-based; details: Escherichia coli, ATCC25922; 19 h, 35 °C; read-out: MIC E. coli ATCC 25922
Outline: as §1

SMILES: CN1CCCCC1CCN1c2cc(Cl)ccc2Sc2cc3ccccc3nc21 (centres unmarked) [Compound 11, 8-Chloro-6-(2-(1-methylpiperidin-2-yl)ethyl)-quino[3,2-b]benzo[1,4]thiazine]
- IC50 (HCT116 (colon cancer); Homo sapiens, HCT-116, MTT, 72 h, read-out: IC50 HCT116): 7.7 ± 1.2 µM
- SI HCT116 (HCT116 (colon cancer); SI = IC50 for normal cell line (HaCaT)/IC50 cancer cell line): 1.6
- MIC (S. aureus ATCC 29213): 128 µg/mL (≈ 312 µM)
- MIC [1]: 256 µg/mL (≈ 624 µM)
- MIC (S. aureus ATCC 6538): 128 µg/mL (≈ 312 µM)
- MIC (S. aureus ATCC 25923): 128 µg/mL (≈ 312 µM)
- MIC [2]: 256 µg/mL (≈ 624 µM)
- MIC (P. aeruginosa ATCC 15442): > 256 µg/mL
- MIC S. aureus NCTC 4163 (S. aureus NCTC 4163): 8 µg/mL (≈ 19.5 µM)
- MIC (S. aureus NCTC 4163; Staphylococcus aureus, NCTC4163, read-out: MIC S. aureus NCTC 4163): 8 µg/mL (≈ 19.5 µM)
- MIC (E. coli ATCC 25922): > 256 µg/mL
